Test results as given in US20050032873A1, “3-Amino chroman and 2-amino tetralin derivatives” (Wyeth, priority 2003, published 2005).
Where two headings read alike, the source gives them in different places.

Columns and labels:
5-HT1A receptor [1] = target: T1, 5-HT1A receptor (Homo sapiens, UniProt P08908); test: 5-HT1A receptor affinity: displacement of [3H] 8-OH-DPAT; assay type: binding; design: expressed in transfected cells; conditions: displacement of [3H] 8-OH-DPAT; CHO cells stably transfected with human 5-HT1A receptors; read-out: 5-HT1A Receptor Affinity Ki
T1 sequence (P08908 1-422): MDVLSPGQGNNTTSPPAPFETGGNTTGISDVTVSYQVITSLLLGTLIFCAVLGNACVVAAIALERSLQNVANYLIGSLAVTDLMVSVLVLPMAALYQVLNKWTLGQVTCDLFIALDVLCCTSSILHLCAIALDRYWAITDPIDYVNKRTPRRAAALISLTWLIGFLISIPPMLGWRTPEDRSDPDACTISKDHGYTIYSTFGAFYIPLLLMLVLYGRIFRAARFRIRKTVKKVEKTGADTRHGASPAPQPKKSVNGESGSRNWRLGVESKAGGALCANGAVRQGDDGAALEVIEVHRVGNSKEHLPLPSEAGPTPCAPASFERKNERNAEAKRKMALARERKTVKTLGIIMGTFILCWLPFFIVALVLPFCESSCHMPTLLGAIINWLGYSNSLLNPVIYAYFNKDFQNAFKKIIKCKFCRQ

serotonin transporter = target: T2, serotonin transporter (Rattus norvegicus, UniProt P31652); test: 5-HT transporter affinity: displacement of 3H-paroxetine from male rat cortical membranes; assay type: binding; conditions: displacement of 3H-paroxetine; male rat cortical membranes; read-out: 5-HT Transporter Affinity Ki
T2 construct: displace ^3H-paroxetine from male rat cortical membranes; from tissue; host or cells: male rat cortical membranes
T2 sequence (P31652 whole entry): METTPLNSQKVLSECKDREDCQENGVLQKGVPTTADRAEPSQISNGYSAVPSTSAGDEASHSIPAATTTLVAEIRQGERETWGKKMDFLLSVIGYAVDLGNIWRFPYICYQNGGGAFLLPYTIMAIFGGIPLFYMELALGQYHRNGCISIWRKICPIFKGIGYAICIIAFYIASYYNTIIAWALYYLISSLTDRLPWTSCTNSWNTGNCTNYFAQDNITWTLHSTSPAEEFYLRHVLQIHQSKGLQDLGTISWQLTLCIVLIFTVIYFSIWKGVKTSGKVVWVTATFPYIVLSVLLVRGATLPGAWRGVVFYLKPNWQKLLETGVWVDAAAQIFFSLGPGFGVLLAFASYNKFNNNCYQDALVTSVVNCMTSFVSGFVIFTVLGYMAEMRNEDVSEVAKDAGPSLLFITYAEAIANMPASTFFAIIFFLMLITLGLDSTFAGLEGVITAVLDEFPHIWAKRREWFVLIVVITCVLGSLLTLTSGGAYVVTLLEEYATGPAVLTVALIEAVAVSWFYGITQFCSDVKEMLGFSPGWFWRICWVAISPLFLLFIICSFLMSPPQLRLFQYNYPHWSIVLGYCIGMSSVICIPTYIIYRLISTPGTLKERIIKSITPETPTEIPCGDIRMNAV

5-HT1A receptor [2] = target: T1, 5-HT1A receptor; test: cAMP accumulation assay, 5-HT1A function; assay type: cell-based; conditions: for EC50: cells marked EC50 (agonist); for 5-HT1A Function cAMP (Emax) / Emax: in brackets after EC50 or IC50; for IC50: cells marked IC50 (antagonist), read-out: 5-HT1A Function cAMP IC50; for Emax: read-out: 5-HT1A Function cAMP (Emax)
[3] = target: T3, cloned human 5-HT1A receptors (Homo sapiens, UniProt P08908); test: 35S-GTPγS binding assay, 5-HT1A function; assay type: biochemical; conditions: for EC50: agonist potency; for IC50: antagonist potency, reversal of 8-OH-DPAT, read-out: 5-HT1A Function GTPγS IC50
T3 construct: expressed in transfected cells
T3 sequence (P08908 1-422): T1 sequence (P08908 1-422)

[4] = maximum stimulatory effect, in brackets after EC50, read-out: 5-HT1A Function GTPγS (Emax)
[5] = maximum stimulatory effect, in brackets after EC50
[6] = maximum inhibitory effect, in brackets after IC50
[7] = maximum inhibitory effect, in brackets after IC50, read-out: 5-HT1A Function GTPγS (Imax)

CCCN(CCCc1c[nH]c2ccc(F)cc12)C1CCc2c(F)ccc(OC)c2C1 (single isomer, unassigned; (+)) [Compound 51a, (+)-5-fluoro-N-[3-(5-fluoro-1H-indol-3-yl)propyl]-8-methoxy-N-propyl-1,2,3,4-tetrahydro-2-naphthalenamine]
Ki (5-HT1A receptor [1]): 1.71 nM | Ki (serotonin transporter): 1.15 nM | EC50 (5-HT1A receptor [2]): 16.5 nM | 5-HT1A Function cAMP (Emax) (5-HT1A receptor [2]): 100% | EC50 [3]: 13 nM | Emax [3, 4]: 69%

NC(=O)c1cccc2c1CC(N(CCCc1c[nH]c3ccc(F)cc13)C1CCC1)CO2 (single isomer, unassigned; (+)) [Compound 134b, (+)-3-{cyclobutyl[3-(5-fluoro-1H-indol-3-yl)propyl]amino}chromane-5-carboxamide]
Ki (5-HT1A receptor [1]): 29.6 nM | Ki (serotonin transporter): 7.2 nM | EC50 (5-HT1A receptor [2]): 44.5 nM | 5-HT1A Function cAMP (Emax) (5-HT1A receptor [2]): 66.5% | EC50 [3]: 581 nM | 5-HT1A Function GTPγS (Emax) [3, 5]: 71%

NC(=O)c1ccc(F)c2c1CC(N(CC1CCc3[nH]c4ccc(F)cc4c3C1)C1CCC1)CO2 (single isomer, unassigned; (+)) [Compound 174b, (+)-3-{cyclobutyl[(6-fluoro-2,3,4,9-tetrahydro-1H-carbazol-3-yl)methyl]amino}-8-fluorochromane-5-carboxamide]
Ki (5-HT1A receptor [1]): 0.85 nM | Ki (serotonin transporter): 192 nM | IC50 (5-HT1A receptor [2]): 64.1 nM | Emax (5-HT1A receptor [2]): 0% | IC50 [3]: 1440 nM | 5-HT1A Function GTPγS (Imax) [3, 6]: 67%

NC(=O)c1ccc(F)c2c1CC(N(CC1CCc3[nH]c4ccc(F)cc4c3C1)C1CCC1)CO2 (single isomer, unassigned; (+)) [Compound 174c, (+)-3-{cyclobutyl[(6-fluoro-2,3,4,9-tetrahydro-1H-carbazol-3-yl)methyl]amino}-8-fluorochromane-5-carboxamide]
Ki (5-HT1A receptor [1]): 185 nM | Ki (serotonin transporter): 1100 nM | IC50 (5-HT1A receptor [2]): 607 nM | 5-HT1A Function cAMP (Emax) (5-HT1A receptor [2]): 0% | EC50 [3]: 978 nM | Emax [3, 4]: 55%

NC(=O)c1ccc(F)c2c1C[C@@H](NCC1CCc3[nH]c4ccc(F)cc4c3C1)CO2 (single isomer, unassigned; (+)) [Compound 175b]
Ki (5-HT1A receptor [1]): 31.4 nM | Ki (serotonin transporter): 47.6 nM | IC50 (5-HT1A receptor [2]): 4130 nM | 5-HT1A Function cAMP (Emax) (5-HT1A receptor [2]): 0% | IC50 [3]: 174 nM | 5-HT1A Function GTPγS (Imax) [3, 6]: 55%

CCN(CC1CCc2[nH]c3ccc(F)cc3c2C1)[C@H]1COc2c(F)ccc(C(N)=O)c2C1 (single isomer, unassigned; (+)) [Compound 176b]
Ki (5-HT1A receptor [1]): 24.6 nM | Ki (serotonin transporter): 165 nM | IC50 (5-HT1A receptor [2]): 669 nM | 5-HT1A Function cAMP (Emax) (5-HT1A receptor [2]): 0% | IC50 [3]: 827 nM | 5-HT1A Function GTPγS (Imax) [3, 6]: 88%

CCCN(CC1CCc2[nH]c3ccc(F)cc3c2C1)[C@H]1COc2c(F)ccc(C(N)=O)c2C1 (single isomer, unassigned; (+)) [Compound 177b]
Ki (5-HT1A receptor [1]): 7.34 nM | Ki (serotonin transporter): 181 nM | IC50 (5-HT1A receptor [2]): 36.2 nM | 5-HT1A Function cAMP (Emax) (5-HT1A receptor [2]): 0% | IC50 [3]: 181 nM | 5-HT1A Function GTPγS (Imax) [3, 6]: 74%

NC(=O)c1ccc(F)c2c1C[C@@H](N(CC1CC1)CC1CCc3[nH]c4ccc(F)cc4c3C1)CO2 (single isomer, unassigned; (+)) [Compound 178b]
Ki (5-HT1A receptor [1]): 9.48 nM | Ki (serotonin transporter): 116 nM | IC50 (5-HT1A receptor [2]): 224 nM | 5-HT1A Function cAMP (Emax) (5-HT1A receptor [2]): 0% | IC50 [3]: 611 nM | 5-HT1A Function GTPγS (Imax) [3, 6]: 99%

CCCN(CCCc1c[nH]c2ccc(F)cc12)C1COc2c(F)ccc(C(N)=O)c2C1 (single isomer, unassigned; (-)) [Compound 2a, (−)-8-fluoro-3-[[3-(5-fluoro-1H-indol-3-yl)propyl](propyl)amino]-3,4-dihydro-2H-chromene-5-carboxamide]
Ki (5-HT1A receptor [1]): 1.48 nM | Ki (serotonin transporter): 8.5 nM | EC50 (5-HT1A receptor [2]): 18.5 nM | Emax (5-HT1A receptor [2]): 77.5% | IC50 [3]: 405 nM | Emax [3, 7]: 77.4%

CCN(CCCc1c[nH]c2ccc(F)cc12)C1COc2c(F)ccc(C(N)=O)c2C1 (single isomer, unassigned; (-)) [Compound 3a, (−)-3-{ethyl[3-(5-fluoro-1H-indol-3-yl)propyl]amino}-8-fluoro-3,4-dihydro-2H-chromene-5-carboxamide]
Ki (5-HT1A receptor [1]): 35.1 nM | Ki (serotonin transporter): 5 nM | IC50 (5-HT1A receptor [2]): 135 nM | 5-HT1A Function cAMP (Emax) (5-HT1A receptor [2]): 0% | IC50 [3]: 1300 nM | 5-HT1A Function GTPγS (Imax) [3, 6]: 79%

NC(=O)c1ccc(F)c2c1CC(N(CCCc1c[nH]c3c(F)cc(F)cc13)C1CCC1)CO2 (single isomer, unassigned; (-)) [Compound 9a, (−)-3-{cyclobutyl[3-(5,7-difluoro-1H-indol-3-yl)propyl]amino}-8-fluorochromane-5-carboxamide]
Ki (5-HT1A receptor [1]): 1.73 nM | Ki (serotonin transporter): 3.34 nM | IC50 (5-HT1A receptor [2]): 61.1 nM | Emax (5-HT1A receptor [2]): 0% | IC50 [3]: 207 nM | 5-HT1A Function GTPγS (Imax) [3, 6]: 100%

CCCN(C(C)CCCc1c[nH]c2ccc(F)cc12)C1COc2c(F)ccc(C(N)=O)c2C1 (single isomer, unassigned; (-)) [Compound 14b, (−)-8-fluoro-3-[[4-(5-fluoro-1H-indol-3-yl)-1-methylbutyl](propyl)amino]chromane-5-carboxamide]
Ki (5-HT1A receptor [1]): 1.88 nM | Ki (serotonin transporter): 9.5 nM | IC50 (5-HT1A receptor [2]): 110 nM | 5-HT1A Function cAMP (Emax) (5-HT1A receptor [2]): 0% | IC50 [3]: 477 nM | 5-HT1A Function GTPγS (Imax) [3, 6]: 100%

CC(CCc1c[nH]c2ccc(F)cc12)N(CC1CC1)C1COc2c(F)ccc(C(N)=O)c2C1 (single isomer, unassigned; (-)) [Compound 15a, (−)-3-{(cyclopropylmethyl)[3-(5-fluoro-1H-indol-3-yl)-1-methylpropyl]amino}-8-fluorochromane-5-carboxamide]
Ki (5-HT1A receptor [1]): 1.88 nM | Ki (serotonin transporter): 10.2 nM | IC50 (5-HT1A receptor [2]): 72.7 nM | 5-HT1A Function cAMP (Emax) (5-HT1A receptor [2]): 0% | IC50 [3]: 333 nM | Emax [3, 7]: 100%

CCN(C(C)CCc1c[nH]c2ccc(F)cc12)C1COc2c(F)ccc(C(N)=O)c2C1 (single isomer, unassigned; (-)) [Compound 16a, (−)-3-{ethyl[3-(5-fluoro-1H-indol-3-yl)-1-methylpropyl]amino}-8-fluorochromane-5-carboxamide]
Ki (5-HT1A receptor [1]): 37.3 nM | Ki (serotonin transporter): 0.9 nM | IC50 (5-HT1A receptor [2]): 187 nM | 5-HT1A Function cAMP (Emax) (5-HT1A receptor [2]): 0% | IC50 [3]: 3000 nM | Emax [3, 7]: 100%

CCCN(CCCc1c[nH]c2ccc(F)cc12)C1CCc2c(F)ccc(OC)c2C1 (single isomer, unassigned; (-)) [Compound 51b, (−)-5-fluoro-N-[3-(5-fluoro-1H-indol-3-yl)propyl]-8-methoxy-N-propyl-1,2,3,4-tetrahydro-2-naphthalenamine]
Ki (5-HT1A receptor [1]): 14.2 nM | Ki (serotonin transporter): 1.12 nM | IC50 (5-HT1A receptor [2]): 50 nM | 5-HT1A Function cAMP (Emax) (5-HT1A receptor [2]): 0% | IC50 [3]: 48 nM | Emax [3, 7]: 46%

NC(=O)c1cccc2c1CC(N(CCCc1c[nH]c3ccc(F)cc13)C1CCC1)CO2 (single isomer, unassigned; (-)) [Compound 134a, (−)-3-{cyclobutyl[3-(5-fluoro-1H-indol-3-yl)propyl]amino}chromane-5-carboxamide]
Ki (5-HT1A receptor [1]): 0.66 nM | Ki (serotonin transporter): 2.75 nM | EC50 (5-HT1A receptor [2]): 3.87 nM | 5-HT1A Function cAMP (Emax) (5-HT1A receptor [2]): 89% | EC50 [3]: 66 nM | IC50 [3]: 191 nM | Emax [3, 7]: 60% | 5-HT1A Function GTPγS (Emax) [3, 5]: 30%

NC(=O)c1ccc(F)c2c1CC(N(CC1CCc3[nH]c4ccc(F)cc4c3C1)C1CCC1)CO2 (single isomer, unassigned; (-)) [Compound 174d, (−)-3-{cyclobutyl[(6-fluoro-2,3,4,9-tetrahydro-1H-carbazol-3-yl)methyl]amino}-8-fluorochromane-5-carboxamide]
Ki (5-HT1A receptor [1]): 73.3 nM | Ki (serotonin transporter): 322 nM | IC50 (5-HT1A receptor [2]): 304 nM | 5-HT1A Function cAMP (Emax) (5-HT1A receptor [2]): 0% | IC50 [3]: 4750 nM | 5-HT1A Function GTPγS (Imax) [3, 6]: 100%

NC(=O)c1ccc(F)c2c1C[C@@H](NCC1CCc3[nH]c4ccc(F)cc4c3C1)CO2 (single isomer, unassigned; (-)) [Compound 175a]
Ki (5-HT1A receptor [1]): 38 nM | Ki (serotonin transporter): 20.9 nM | IC50 (5-HT1A receptor [2]): 1480 nM | Emax (5-HT1A receptor [2]): 0% | IC50 [3]: 429 nM | 5-HT1A Function GTPγS (Imax) [3, 6]: 100%

CCN(CC1CCc2[nH]c3ccc(F)cc3c2C1)[C@H]1COc2c(F)ccc(C(N)=O)c2C1 (single isomer, unassigned; (-)) [Compound 176a]
Ki (5-HT1A receptor [1]): 392 nM | Ki (serotonin transporter): 619 nM | IC50 (5-HT1A receptor [2]): 878 nM | Emax (5-HT1A receptor [2]): 0% | IC50 [3]: 4260 nM | Emax [3, 7]: 92%

CCCN(CC1CCc2[nH]c3ccc(F)cc3c2C1)[C@H]1COc2c(F)ccc(C(N)=O)c2C1 (single isomer, unassigned; (-)) [Compound 177a]
Ki (5-HT1A receptor [1]): 60.3 nM | Ki (serotonin transporter): 5240 nM | IC50 (5-HT1A receptor [2]): 832 nM | Emax (5-HT1A receptor [2]): 0% | IC50 [3]: 2950 nM | 5-HT1A Function GTPγS (Imax) [3, 6]: 100%
